Experimental data: US5571805A, “Antibiotic compounds” (Zeneca Limited, priority 1992, dated 1996)
≈ marks a conversion by molar mass, not a printed value.

Key:
P. morganii I + 001 = test: MIC by agar-dilution (Diagnostic Sensitivity Test), inoculum 10^4 CFU/spot; format: cell-based; settings: Morganella morganii, read-out: minimum inhibitory concentration (MIC)
From the text: (§1) The pharmaceutically acceptable carbapenem compounds of the present invention are useful antibacterial agents having a broad spectrum of activity in vitro against standard laboratory microorganisms, both Gram-negative and Gram-positive, which are used to screen for activity against pathogenic bacteria. The antibacterial spectrum and potency of a particular compound may be determined in a standard test system. In particular the carbapenems of the present invention show good stability to beta-lactamases and have a particularly good elimination half life in mammals. In general compounds show significant improvement over imipenem.
(§2) The following results were obtained for representative compounds on a standard in vitro test system using Diagnostic Sensitivity Test. The antibacterial activity is described in terms of the minimum inhibitory concentration (MIC) determined by the agar-dilution technique with an inoculum size of 10^4 CFU/spot.

[1] = test system: Enterobacter cloacae P99-; test: as above; format: cell-based; settings: P99, read-out: minimum inhibitory concentration (MIC)
From the text: as §1, §2

E. coli DCO = test: as above; format: cell-based; settings: Escherichia coli, read-out: minimum inhibitory concentration (MIC)
From the text: as §1, §2

B. fragilis AMP S = test: as above; format: cell-based; settings: Bacteroides fragilis, read-out: minimum inhibitory concentration (MIC)
From the text: as §1, §2

S. aureus Oxford = test: as above; format: cell-based; settings: Staphylococcus aureus, read-out: minimum inhibitory concentration (MIC)
From the text: as §1, §2

[2] = test system: Gram positive and negative, aerobic and anaerobic bacteria; settings: imipenem, background; cited from earlier work

Compound | MIC (P. morganii I + 001) [µg/mL] | MIC [1] [µg/mL] | MIC (E. coli DCO) [µg/mL] | MIC (B. fragilis AMP S) [µg/mL] | MIC (S. aureus Oxford) [µg/mL] | spectrum of antibacterial activity [2]
C[C@@H](O)[C@H]1C(=O)N2C(C(=O)O)=C(S[C@@H]3CN[C@H](C(=O)Nc4cccc(S(=O)(=O)O)c4)C3)[C@H](C)[C@H]12 [EXAMPLE 1, (1R,5S,6S,8R,2'S,4'S)-2-(2-(3-Sulfophenylcarbamoyl)pyrrolidin-4-ylthio)-6-(1-hydroxyethyl)-1-methylcarbapenem-3-carboxylic acid] | 0.015 (≈ 0.0293 µM) | 0.008 (≈ 0.0156 µM) | 0.015 (≈ 0.0293 µM) | 0.25 (≈ 0.489 µM) | 0.125 (≈ 0.244 µM) | 
C[C@@H](O)[C@H]1C(=O)N2C(C(=O)O)=C(SCCN=CN)C[C@H]12 [imipenem, N-formimidoyl thienamycin] |  |  |  |  |  | broad spectrum of antibacterial activity
